The conditions of data set [1]: hydrophobic acid; cited from earlier work.
For data set [2] the following is noted: cited from earlier work.
A short description of data set [3]: Solubility of dasatinib in solvents, quantified using HPLC. The data set is classed as physicochemical. The settings on record: for solubility: organic solvent or mixture, read-out: Dasatinib solubility (mg/mL, by HPLC). An excerpt: The solubility of dasatinib in benzyl alcohol, ethyl acetate, and mixtures of oleic acid and benzyl alcohol were quantified using HPLC.

The nature of data set [4]: Stability of dasatinib in release buffer at 37° C.
Where [5] appears, read: protonatable nitrogen-containing therapeutic agent.

In brackets after ≈: the same amount, converted by molar mass. Counter-ions that a name gives are not always drawn. Like-named read-outs stand apart in the source and are kept apart here.

The term log P denotes the decadic logarithm of the partition coefficient of the neutral form, usually between octanol and water. In general, pKa refers to the negative logarithm of the acid dissociation constant.

For the compound `O=S(=O)(O)c1ccc2ccccc2c1` [naphthalene-2-sulfonic acid], in data set [1], the “log P” value is 2.1. Besides, the pKa in data set [2] (hydrophobic acid) was −1.8.
Turning to `CCCCCCCCCCCCc1ccc(S(=O)(=O)O)cc1` [dodecylbenzenesulfonic acid], the “log P” value in data set [1] was 6.6. Besides, the pKa in data set [2] (hydrophobic acid) is −1.8.
As to `O=S(=O)(O)c1cccc2c(S(=O)(=O)O)cccc12` [naphthalene-1,5-disulfonic acid], the “log P” value in data set [1] is 1.3. Further, the pKa in data set [2] (hydrophobic acid) is given as −2.
On to `C[C@H](CCC(=O)O)[C@H]1CC[C@H]2[C@@H]3CC[C@@H]4C[C@H](O)CC[C@]4(C)[C@H]3C[C@H](O)[C@]12C` [deoxycholic acid], for which the “log P” value in data set [1] is recorded as 3.79. For the same compound, the pKa in data set [2] (hydrophobic acid) is 4.65.
As for `C=C1CC[C@@H](OS(=O)(=O)O)C/C1=C/C=C1\CCC[C@]2(C)[C@@H]([C@H](C)CCCC(C)C)CC[C@@H]12` [Vitamin D3-sulfate], in data set [2] (hydrophobic acid), the pKa was −1.5.
As for `CC(C)CCC[C@@H](C)[C@H]1CC[C@H]2[C@@H]3CC=C4C[C@@H](OS(=O)(=O)O)CC[C@]4(C)[C@H]3CC[C@]12C` [cholesteryl sulfate], the pKa in data set [2] (hydrophobic acid) is −1.4.
As to `CCN(CC)CCNC(=O)c1c(C)[nH]c(/C=C2\C(=O)Nc3ccc(F)cc32)c1C` [sunitinib, reference compound], the pKa in data set [2] (setting [5]) is reported as 7.07.
Take `O=C(O)c1ccc2ccccc2c1O` [1-hydroxy-2-naphthoic acid]: the “log P” value in data set [1] is given as 2.97. In addition, the pKa in data set [2] (hydrophobic acid) is 2-3.
For the compound `CCCCCCCC/C=C\CCCCCCCC(=O)OC[C@H](COP(=O)(O)O)OC(=O)CCCCCCC/C=C\CCCCCCCC` [dioleoyl phosphatidic acid], the pKa in data set [2] (hydrophobic acid) is recorded as approximately 2.
Consider `CCCCCCCC/C=C\CCCCCCCC(=O)O` [oleic acid], for which the “log P” value in data set [1] was 6.78. Besides, the pKa in data set [2] (hydrophobic acid) is listed as 4-5.
With `O=C(O)c1cc2ccccc2c(Cc2c(O)c(C(=O)O)cc3ccccc23)c1O` [pamoic acid], the pKa in data set [2] (hydrophobic acid) is reported as 2.4.
For `CCCCCCCCCCCCOS(=O)(=O)O` [dodecylsulfuric acid], in data set [1], the “log P” value is given as 4.5. Besides, in data set [2] (hydrophobic acid), the pKa was −0.09.
For `CC[C@]1(O)C[C@H]2CN(CCc3c([nH]c4ccccc34)[C@@](C(=O)OC)(c3cc4c(cc3OC)N(C=O)[C@H]3[C@@](O)(C(=O)OC)[C@H](OC(C)=O)[C@]5(CC)C=CCN6CC[C@]43[C@@H]65)C2)C1` [vincristine, reference compound], the pKa in data set [2] (setting [5]) is listed as 7.08.
Take `Cc1nc(Nc2ncc(C(=O)Nc3c(C)cccc3Cl)s2)cc(N2CCN(CCO)CC2)n1` [dasatinib]: the solubility in data set [3] (3% oleic acid in benzyl alcohol, 3% Oleic Acid in BA) was 16.8 mg/mL (≈ 34.5 mM); in data set [3] (6% oleic acid in benzyl alcohol, 6% Oleic Acid in BA), 25.2 mg/mL (≈ 51.6 mM); in data set [3] (9% oleic acid in benzyl alcohol, 9% Oleic Acid in BA), 29.8 mg/mL (≈ 61.1 mM); in data set [3] (solvent BA (benzyl alcohol)), 9.45 mg/mL (≈ 19.4 mM); in data set [3] (solvent EA (ethyl acetate)) it was 0.32 mg/mL (≈ 0.656 mM). Besides, the “improvement of solubility of dasatinib” value in data set [3] (benzyl alcohol doped with oleic acid vs benzyl alcohol) was 2-3 fold. In addition, the “stability in release buffer” value in data set [4] was “degraded after 24 hours”. The pKa in data set [2] (setting [5]) is on record as 7.07.
On to `Cc1ccc(NC(=O)c2ccc(CN3CCN(C)CC3)cc2)cc1Nc1nccc(-c2cccnc2)n1` [imatinib, reference compound], for which the pKa in data set [2] (setting [5]) is 8.38.

These data come from patent publication US20140248358A1, “Therapeutic Nanoparticles Comprising a Therapeutic Agent and Methods of Making and Using Same” (BIND Therapeutics, Inc., priority 2012, published 2014).
